Test results reported in patent US11716992B2, “5A5B6C tricyclic spirolactone derivative, preparation method therefor and use thereof” (NANKAI UNIVERSITY, priority 2017, dated 2023).
Read-outs that look alike come from different tables or passages of the source.

How the values were obtained:
[1] = system: Apis mellifera ligustica Spin; settings: for Death number after 24 h / Death number after 48 h: per replicate of 10 bees
Ostrinia furnacalis = assay: Insecticidal activity against Ostrinia furnacalis; format: in vivo; settings: Ostrinia furnacalis; 100 μg/mL; read-out: insecticidal activity, Ostrinia furnacalis
Rhizoctonia cerealis = assay: Fungicidal activity, fungicide growth rate method, RC; format: cell-based; settings: for inhibition at 50 µg/mL: Ceratobasidium cereale, read-out: fungicidal activity (growth inhibition rate), RC
Alternaria solani = assay: Fungicidal activity, fungicide growth rate method, AS; format: cell-based; settings: Alternaria solani, read-out: fungicidal activity (growth inhibition rate), AS
[2] = system: Phytophthora infestans (Mont.) de Bary; assay: microbe, parasite or virus in culture; format: cell-based; settings: Phytophthora infestans, read-out: fungicidal activity (growth inhibition rate), PI, 50 μg/mL
[3] = system: Helicoverpa armigera (Hübner); assay: Insecticidal activity against Helicoverpa armigera (Hübner); format: in vivo; settings: Helicoverpa armigera; 100 μg/mL; read-out: insecticidal activity, Helicoverpa armigera (Hübner)
[4] = system: Mythimna separate (Walker); assay: Insecticidal activity against Mythimna separate (Walker); format: in vivo; settings: Mythimna, 100 μg/mL; read-out: insecticidal activity, Mythimna separate (Walker)
Caenorhabditis elegans = assay: Insecticidal activity against Caenorhabditis elegans; format: in vivo; settings: Caenorhabditis elegans, 100 μg/mL; read-out: insecticidal activity, Caenorhabditis elegans
Botrytis cinerea = assay: Fungicidal activity, fungicide growth rate method, BC; format: cell-based; settings: Botrytis cinerea, read-out: fungicidal activity (growth inhibition rate), BC
wheat Gibberella zeae = assay: microbe, parasite or virus in culture; format: cell-based; settings: Fusarium graminearum, read-out: fungicidal activity (growth inhibition rate), GZ, 50 μg/mL
Pellicularia sasakii = assay: Fungicidal activity, fungicide growth rate method, PS; format: cell-based; settings: read-out: fungicidal activity (growth inhibition rate), PS
Physalospora piricola = assay: Fungicidal activity, fungicide growth rate method, PP; format: cell-based; settings: read-out: fungicidal activity (growth inhibition rate), PP
Cercospora arachidicola = assay: Fungicidal activity, fungicide growth rate method, CA; format: cell-based; settings: Mycosphaerella arachidis, read-out: fungicidal activity (growth inhibition rate), CA

Structure (SMILES)	pest or weed control at 100 µg/mL (Ostrinia furnacalis) [%]	inhibition at 50 µg/mL (Alternaria solani; 50 μg/mL) [%]	inhibition at 50 µg/mL [2] [%]	pest or weed control at 100 µg/mL [3] [%]	pest or weed control at 100 µg/mL [4] [%]	pest or weed control at 100 µg/mL (Caenorhabditis elegans) [%]	inhibition at 50 µg/mL (Botrytis cinerea; 50 μg/mL) [%]	inhibition at 50 µg/mL (wheat Gibberella zeae) [%]	inhibition at 50 µg/mL (Rhizoctonia cerealis; 50 μg/mL) [%]	inhibition at 50 µg/mL (Pellicularia sasakii; 50 μg/mL) [%]	inhibition at 50 µg/mL (Cercospora arachidicola; 50 μg/mL) [%]	inhibition at 50 µg/mL (Physalospora piricola; 50 μg/mL) [%]	other results
C=CCC1CC2(O)CC(CC=C)C3CC=CCC32O1 (racemic) [Zyj-7-98]													Death rate after 48 h (%) ([1]; dosage 12.0 μg a.i./bee): 0%; Death number after 24 h ([1]; dosage 12.0 μg a.i./bee): 0; Death number after 48 h ([1]; dosage 12.0 μg a.i./bee): 0
O=C1CCC23CC=CCC12O3 (centres unmarked) [Zyj06-39]	0	> 60	27	0	10	> 30	36						fungicidal activity (growth inhibition rate), RC (Rhizoctonia cerealis; 50 μg/mL): 93%
C[Si](C)(C)O[C@]12CC=CC[C@@H]1C=CC2=O [Zyj06-82]	5		16	5	25	8		0					inhibition at 50 µg/mL (Rhizoctonia cerealis): 43%; inhibition at 50 µg/mL (Alternaria solani): 14%; inhibition at 50 µg/mL (Pellicularia sasakii): 23%; inhibition at 50 µg/mL (Physalospora piricola): 40%; inhibition at 50 µg/mL (Botrytis cinerea): > 50%; inhibition at 50 µg/mL (Cercospora arachidicola): 24%
CCOC(=O)C(C(=O)OCC)C1C[C@]2(O)C(C(=O)OCC)C(=O)O[C@@]23CC=CC[C@H]13 (some centres unmarked) [Zyj06-113-3]	0		11	0	0	5	> 50	43	32	11	> 50		Death rate after 48 h (%) ([1]; dosage 9.87 μg a.i./bee): 0%; Death number after 24 h ([1]; dosage 9.87 μg a.i./bee): 0; Death number after 48 h ([1]; dosage 9.87 μg a.i./bee): 0; Death rate after 48 h (%) ([1]; dosage 15.2 μg a.i./bee): 10.0%; Death number after 24 h ([1]; dosage 15.2 μg a.i./bee): 0; Death number after 48 h ([1]; dosage 15.2 μg a.i./bee): 1
CCOC(=O)C1C(=O)O[C@]23CC=CC[C@@H]2[C@H](OOC(C)(C)C)C[C@]13O (some centres unmarked) [Zyj06-127]	0	7	2	0	0	7	45	36	40	4	23	5	Death rate after 48 h (%) ([1]; dosage 5.40 μg a.i./bee): 0%; Death number after 24 h ([1]; dosage 5.40 μg a.i./bee): 0; Death number after 48 h ([1]; dosage 5.40 μg a.i./bee): 0; Death rate after 48 h (%) ([1]; dosage 7.70 μg a.i./bee): 0%; Death number after 24 h ([1]; dosage 7.70 μg a.i./bee): 0; Death number after 48 h ([1]; dosage 7.70 μg a.i./bee): 0
C=CC[C@@H]1CC(=O)[C@@]2(O)CC=CC[C@H]12 [Zyj06-177]	0	12	11	0	0		48	0	61	19	46	11	Death rate after 48 h (%) ([1]; dosage 8.17 μg a.i./bee): 0%; Death number after 24 h ([1]; dosage 8.17 μg a.i./bee): 0; Death number after 48 h ([1]; dosage 8.17 μg a.i./bee): 0; Death rate after 48 h (%) ([1]; dosage 9.46 μg a.i./bee): 0%; Death number after 24 h ([1]; dosage 9.46 μg a.i./bee): 0; Death number after 48 h ([1]; dosage 9.46 μg a.i./bee): 0
C=CC[C@@H]1C[C@]2(O)CC(=O)O[C@@]23C[C@@H](Cl)[C@H](O)C[C@H]13 [Zyj07-14]		15	2			20	> 50	43	51	15	31	31	
